Paper PMC4961579 (Journal of neurochemistry, 2016)

Key:
Assay in all cases: two-electrode voltage clamp, micro-transplanted oocytes
Type in all cases: cell-based
[1] = target: AMPA receptor with TARP gamma-8 (native, rat hippocampal synaptosomes) (Rattus norvegicus, UniProt P19490+P19491+Q8VHW5); conditions: read-out: % inhibition at 10 μM
[2] = system: NMDA receptor (native synaptic, rat prefrontal cortex synaptosomes); conditions: 300 µM NMDA, 30 µM glycine, -100 mV, pH 7.4
[3] = system: AMPA receptor (native synaptic, human cortical synaptosomes); conditions: antagonist; 100 µM AMPA + 100 µM cyclothiazide; -100 mV, pH 7.4
[4] = system: AMPA receptor (native synaptic, rat prefrontal cortex synaptosomes); conditions: antagonist; 100 µM AMPA + 30 µM cyclothiazide; -100 mV, pH 7.4
[5] = system: GABAA receptor (native synaptic, human cortical synaptosomes); conditions: positive allosteric modulator; 30 µM GABA; legend says 212% potentiation

Sequence of AMPA receptor with TARP gamma-8 (native, rat hippocampal synaptosomes) (Q8VHW5 whole entry): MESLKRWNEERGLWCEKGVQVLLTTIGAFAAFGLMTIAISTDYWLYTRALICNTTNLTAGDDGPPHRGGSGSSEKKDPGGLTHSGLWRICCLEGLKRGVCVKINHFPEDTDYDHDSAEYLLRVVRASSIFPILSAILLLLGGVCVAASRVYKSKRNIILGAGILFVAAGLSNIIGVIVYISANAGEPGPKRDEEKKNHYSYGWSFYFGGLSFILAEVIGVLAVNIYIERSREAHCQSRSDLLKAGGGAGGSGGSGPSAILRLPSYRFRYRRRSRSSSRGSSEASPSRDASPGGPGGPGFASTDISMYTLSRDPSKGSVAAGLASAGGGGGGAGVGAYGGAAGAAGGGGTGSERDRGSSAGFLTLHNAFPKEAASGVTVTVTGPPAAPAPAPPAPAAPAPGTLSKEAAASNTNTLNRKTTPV
Sequence of AMPA receptor with TARP gamma-8 (native, rat hippocampal synaptosomes) (P19490 19-907): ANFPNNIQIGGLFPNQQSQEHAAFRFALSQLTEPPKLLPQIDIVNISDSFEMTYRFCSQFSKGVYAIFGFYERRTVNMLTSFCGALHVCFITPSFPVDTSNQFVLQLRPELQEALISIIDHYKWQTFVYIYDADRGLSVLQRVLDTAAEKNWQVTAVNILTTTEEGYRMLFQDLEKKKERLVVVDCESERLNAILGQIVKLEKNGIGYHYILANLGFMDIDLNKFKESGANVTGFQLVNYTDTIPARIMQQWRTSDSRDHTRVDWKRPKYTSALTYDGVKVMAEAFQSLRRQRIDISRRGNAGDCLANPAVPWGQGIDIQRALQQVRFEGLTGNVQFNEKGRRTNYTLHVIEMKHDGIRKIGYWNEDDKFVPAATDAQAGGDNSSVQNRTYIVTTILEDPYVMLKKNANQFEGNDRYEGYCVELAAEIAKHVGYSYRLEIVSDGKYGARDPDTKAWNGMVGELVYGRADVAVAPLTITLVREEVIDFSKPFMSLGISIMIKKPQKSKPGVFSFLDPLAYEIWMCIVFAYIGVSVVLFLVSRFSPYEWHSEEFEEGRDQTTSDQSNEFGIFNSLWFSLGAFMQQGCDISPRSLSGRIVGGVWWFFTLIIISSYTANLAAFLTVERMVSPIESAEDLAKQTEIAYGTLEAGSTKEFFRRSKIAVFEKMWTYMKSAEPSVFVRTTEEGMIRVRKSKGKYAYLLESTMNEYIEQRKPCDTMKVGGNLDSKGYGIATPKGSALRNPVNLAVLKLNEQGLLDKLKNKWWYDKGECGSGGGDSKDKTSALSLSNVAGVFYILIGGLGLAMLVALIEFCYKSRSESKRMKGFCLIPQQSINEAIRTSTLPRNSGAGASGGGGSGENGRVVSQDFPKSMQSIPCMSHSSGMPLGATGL
Sequence of AMPA receptor with TARP gamma-8 (native, rat hippocampal synaptosomes) (P19491 22-883): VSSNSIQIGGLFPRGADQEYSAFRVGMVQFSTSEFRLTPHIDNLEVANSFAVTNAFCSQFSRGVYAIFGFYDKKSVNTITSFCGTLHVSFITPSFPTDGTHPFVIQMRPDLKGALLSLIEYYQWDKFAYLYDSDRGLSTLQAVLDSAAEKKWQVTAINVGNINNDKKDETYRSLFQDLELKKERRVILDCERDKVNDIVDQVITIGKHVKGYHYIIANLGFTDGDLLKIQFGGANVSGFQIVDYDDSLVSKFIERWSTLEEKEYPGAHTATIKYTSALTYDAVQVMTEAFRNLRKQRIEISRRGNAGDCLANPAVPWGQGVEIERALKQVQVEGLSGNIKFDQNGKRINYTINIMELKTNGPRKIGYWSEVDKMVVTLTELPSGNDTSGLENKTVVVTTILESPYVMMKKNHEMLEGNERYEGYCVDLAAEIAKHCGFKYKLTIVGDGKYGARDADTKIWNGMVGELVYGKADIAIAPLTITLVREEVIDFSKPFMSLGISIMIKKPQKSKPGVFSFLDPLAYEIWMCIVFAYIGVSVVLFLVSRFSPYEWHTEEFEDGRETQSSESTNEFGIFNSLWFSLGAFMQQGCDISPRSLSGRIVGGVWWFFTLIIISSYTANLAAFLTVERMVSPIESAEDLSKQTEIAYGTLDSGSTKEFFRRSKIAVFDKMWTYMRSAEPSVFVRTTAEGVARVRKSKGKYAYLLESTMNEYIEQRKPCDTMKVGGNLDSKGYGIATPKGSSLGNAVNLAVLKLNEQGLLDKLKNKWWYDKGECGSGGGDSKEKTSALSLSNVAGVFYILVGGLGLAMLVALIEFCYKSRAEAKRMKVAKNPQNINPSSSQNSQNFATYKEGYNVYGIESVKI

## C[C@@H](c1ccc2[nH]c(=O)sc2c1)c1ccn(-c2ccc(OCCO)cn2)n1 [LY3130481]
[1]
  inhibition at 10 µM: 55 ± 6.8%

## C[C@]12N[C@H](Cc3ccccc31)c1ccccc12 [MK801]
[2]; non-competitive antagonist
  % inhibition at 1 μM: 100%

## CC(C(O)c1ccc(O)cc1)N1CCC(Cc2ccccc2)CC1 (stereo not drawn) [ifenprodil]
[2]; GluN2B-selective antagonist
  % inhibition at 10 μM: 75%

## N#Cc1ccccc1-c1cc(-c2ccccn2)cn(-c2ccccc2)c1=O [perampanel]
[3]
  % inhibition at 30 μM: 91%
[4]
  % inhibition at 30 μM: 97%

## Cc1ccc(-c2nc3ccc(C)cn3c2CC(=O)N(C)C)cc1 [zolpidem]
[5]
  % of control at 1 μM: 212%
